The text below walks through data of ChEMBL document CHEMBL5143506, “Design, synthesis, and mechanism study of dimerized phenylalanine derivatives as novel HIV-1 capsid inhibitors” (Eur J Med Chem, 2021).

A short description of data set [1]: in vitro. The conditions noted are these: human, liver microsomes.
Data set [2] deals with Human immunodeficiency virus 1. Kind of data set: Antiviral activity against wild type HIV-1 IIIB infected in human MT4 cells assessed as protection against virus-induced cytopathic effect measured after 5 days by MTT assay. Format: functional, organism-based. The conditions noted are these: Human immunodeficiency virus 1, IIIB, MT4, 120 h.
Data set [3] concerns MT4. Kind of data set: (§1) Cytotoxicity against human MT4 cells assessed as reduction in cell viability incubated for 5 days by MTT assay. The note with it: mt4, 120 h. (In general: Formazan colour is commonly taken as a measure of viable cells.)
Data set [4] has as its system Human immunodeficiency virus 1. Kind of data set: Antiviral activity against HIV1 NL4-3 Env-deficient pseudotype virus infected in human U87.CD4.CCR5.CXCR4 cells assessed by reduction in viral infection in early stage at 1 uM measured after 48 hrs by luciferase activity based single-round infection assay. Further details: scale not given: the % may be the effect or the level left. Format: functional.

Data set [5] deals with Human immunodeficiency virus 1. The data set can be described thus: Antiviral activity against HIV1 NL4-3 Env-deficient pseudotype virus infected in human U87.CD4.CCR5.CXCR4 cells assessed by reduction in viral infection in late stage at 1 uM measured after 48 hrs by luciferase activity based single-round infection assay. Format: functional. Also noted: scale not given: the % may be the effect or the level left.

The conditions of data set [6]: human, microsomes, 3 h, 100 µM.
Data set [7] is described as follows: in vitro. The conditions noted are these: human, liver microsomes. This is another data set of the same source. Background: Liver microsomes are a subcellular fraction often used to study metabolism.
Description: Metabolic stability in human liver microsome assessed as parent compound remaining at 100 uM measured after 60 mins in presence of NADPH by LC-MS/MS analysis
A short description of data set [8]: in vitro. The note with it: human, liver microsomes. The source holds these as a separate data set.
Description: Metabolic stability in human liver microsome assessed as parent compound remaining at 100 uM measured after 60 mins by LC-MS/MS analysis
Data set [9] in a line: in vitro. The note with it: human, MT4 cells.
Description: Selectivity index, ratio of CC50 for cytotoxicity against human MT4 cells to EC50 for antiviral activity against HIV-1 IIIB infected in human MT4 cells
The nature of data set [10]: as §1. The note with it: MT4 cells.
The conditions of data set [11]: human, microsomes, 3 h, 100 µM. This is another data set of the same source.
Data set [12] has as its system Human immunodeficiency virus 1. The data set can be described thus: Antiviral activity against HIV1 NL4-3 Env-deficient pseudotype virus infected in human U87.CD4.CCR5.CXCR4 cells assessed by reduction in viral infection in early stage at 5 uM measured after 48 hrs by luciferase activity based single-round infection assay. Format: functional. Also noted: scale not given: the % may be the effect or the level left.

The subject of data set [13] is Human immunodeficiency virus 1. The data set can be described thus: Antiviral activity against HIV1 NL4-3 Env-deficient pseudotype virus infected in human U87.CD4.CCR5.CXCR4 cells assessed by reduction in viral infection in late stage at 5 uM measured after 48 hrs by luciferase activity based single-round infection assay. Format: functional. Further details: scale not given: the % may be the effect or the level left.

Data set [14] is described as follows: in vitro. The conditions noted are these: human, MT4 cells. The source holds these as a separate data set.
Description: Selectivity index, ratio of CC50 for cytotoxicity against human MT4 cells to EC50 for antiviral activity against HIV-1 ROD infected in human MT4 cells

A value given as a limit tells only on which side of the number the result lay.

Turning to `Cc1[nH]c2ccccc2c1CC(=O)N[C@@H](Cc1ccccc1)C(=O)N(C)c1ccccc1`, the half-life at 3 h, 100 µM in data set [1] stood at 30 s.
In the case of `COc1ccc(N(C)C(=O)[C@H](Cc2ccccc2)NC(=O)CN2CCN(S(=O)(=O)c3ccc(N)cc3)CC2=O)cc1`, in [2], the EC50 came to 0.16 µM. The CC50 in [3] came out at 119 µM. In addition, the results for the Activity in [4] and in data set [5] were 7.1% and 55%, respectively. In data set [6], this molecule gave a CLH of 395.6 µL/min/mg. In addition, the values for the fraction remaining at 1 h, 100 µM in [7] and in data set [8] were 0.1% and 106%, respectively.
Take `COc1ccc(N(C)C(=O)[C@H](Cc2ccccc2)NC(=O)CN2CCN(CC(=O)N[C@@H](Cc3ccccc3)C(=O)N(C)c3ccc(OC)cc3)C(=O)C2)cc1`: the 50% effective concentration (EC50) in data set [2] is at least 3.67 µM. The CC50 in [3] came out at 15.7 µM.
With `COc1ccc(N(C)C(=O)[C@H](Cc2cc(F)cc(F)c2)NC(=O)CN2CCN(CC(=O)N[C@@H](Cc3ccccc3)C(=O)N(C)c3ccccc3)C(=O)C2)cc1`, the EC50 in [2] came to 4.19 µM. Besides, the 50% cytotoxic concentration (CC50) in data set [3] came out at 12.8 µM. Moreover, in data set [9], the selectivity ratio was determined as 3.05.
Consider `COc1ccc(N(C)C(=O)[C@H](Cc2ccccc2)NC(=O)CN2CC(=O)N(CC(=O)N[C@@H](Cc3ccccc3)C(=O)N(C)c3ccc(OC)cc3)CC2=O)cc1`, for which, in data set [2], the 50% effective concentration (EC50) was 3.59 µM. Further, the CC50 at 120 h in data set [10] was found to be 24.5 µM. Further, in [9], the selectivity ratio is 6.82.
As for `COc1ccc(N(C)C(=O)[C@H](Cc2cc(F)cc(F)c2)NC(=O)CN2CCN(CC(=O)N[C@@H](Cc3ccccc3)C(=O)N(C)c3ccc(OC)cc3)C(=O)C2)cc1`, in [2], the 50% effective concentration (EC50) amounted to 1.48 µM. Further, the CC50 in [3] was 13.5 µM. In addition, in [9], the selectivity ratio worked out at 9.11.
For `CN(C(=O)[C@H](Cc1ccccc1)NC(=O)CN1CCNCC1=O)c1ccccc1`, in [2], the concentration for a half-maximal effect (EC50) is 247 µM. Moreover, the CC50 at 120 h in [10] is over 317 µM.
On to `COc1ccc(N(C)C(=O)[C@H](Cc2cc(F)cc(F)c2)NC(=O)CN2CCN(CC(=O)N[C@@H](Cc3ccccc3)C(=O)N(C)c3ccccc3)CC2=O)cc1`, for which the EC50 in data set [2] was found to be 2.84 µM. For the same molecule, in data set [3], the cytotoxic concentration (CC50) turned out to be 17.5 µM. The selectivity ratio in data set [9] came to 6.15.
Turning to `COc1ccc(N(C)C(=O)[C@H](Cc2cc(F)cc(F)c2)NC(=O)CN2CCNCC2=O)cc1`, the concentration giving a half-maximal response (EC50) in data set [2] was 31.1 µM. Also, the CC50 in [3] was over 272 µM.
The corresponding values for `COc1ccc(N(C)C(=O)[C@H](Cc2ccccc2)NC(=O)CN2CCNCC2=O)cc1` are 89.2 µM and over 294 µM.
Consider `COc1ccc(N(C)C(=O)[C@H](Cc2cc(F)cc(F)c2)NC(=O)CN2CC(=O)N(CC(=O)N[C@@H](Cc3cc(F)cc(F)c3)C(=O)N(C)c3ccc(OC)cc3)CC2=O)cc1`, for which, in data set [2], the EC50 turned out to be 0.69 µM. The CC50 in data set [3] came to 13.3 µM. Besides, the t1/2 in data set [11] was 96 s. This molecule showed a CLH in data set [6] of 843.9 µL/min/mg. Further, the amount remaining at 1 h, 100 µM came to 0% in [7] and 105% in data set [8].
Consider `COc1ccc(N(C)C(=O)[C@H](Cc2ccccc2)NC(=O)CN2CCN(CC(=O)N[C@@H](Cc3ccccc3)C(=O)N(C)c3ccccc3)CC2=O)cc1`, for which the concentration giving a half-maximal response (EC50) in [2] is over 32.4 µM. Further, the CC50 in data set [3] was 32.4 µM.
On to `COc1ccc(N(C)C(=O)[C@H](Cc2cc(F)cc(F)c2)NC(=O)CN2CCN(CC(=O)N[C@@H](Cc3cc(F)cc(F)c3)C(=O)N(C)c3ccc(OC)cc3)C(=O)C2)cc1`, for which the Activity in data set [12] stood at 86.6%; in data set [13], 0.6%. The molecule also gave a t1/2 in data set [11] of 48 s.
As to `COc1ccc(N(C)C(=O)[C@H](Cc2ccccc2)NC(=O)CN2CCN(CC(=O)N[C@@H](Cc3cc(F)cc(F)c3)C(=O)N(C)c3ccc(OC)cc3)C(=O)C2)cc1`, in data set [2], the EC50 was 2.52 µM. The CC50 in data set [3] was determined as 15.5 µM. Also, the selectivity ratio in [9] turned out to be 6.14.
Consider `CN(C(=O)[C@H](Cc1ccccc1)NC(=O)CN1CC(=O)N(CC(=O)N[C@@H](Cc2ccccc2)C(=O)N(C)c2ccccc2)CC1=O)c1ccccc1`, for which, in [2], the EC50 was found to be 4.24 µM. Besides, in [3], the CC50 was 71.8 µM. Moreover, the results for the selectivity ratio in [9] and in [14] were 16.9 and 2.41, respectively.
`COc1ccc(N(C)C(=O)[C@H](Cc2ccccc2)NC(=O)CN2CCN(CC(=O)N[C@@H](Cc3ccccc3)C(=O)N(C)c3ccccc3)C(=O)C2)cc1`: the half-maximal effective concentration (EC50) in data set [2] is at least 3.37 µM. The 50% cytotoxic concentration (CC50) in data set [3] was 21.7 µM.
As for `CN(C(=O)[C@H](Cc1ccccc1)NC(=O)CN1CCN(CC(=O)N[C@@H](Cc2ccccc2)C(=O)N(C)c2ccccc2)C(=O)C1)c1ccccc1`, the EC50 in data set [2] is over 32.6 µM. For the same molecule, the CC50 in data set [3] is 32.6 µM.

A word on the half-life: it is how long it takes for the measured level to halve. As a reminder, the EC50 is the midpoint of the concentration-response curve. The term CC50 denotes the concentration at which the toxic effect on the cells reaches its halfway point.
